Publication PMC8468270, “In Vitro Heme Coordination of a Dye-Decolorizing Peroxidase—The Interplay of Key Amino Acids, pH, Buffer and Glycerol” (International Journal of Molecular Sciences, 2021)

Molecular target: T1, KpDyP (WT KpDyP) (Klebsiella pneumoniae, UniProt A0A0W8ATM9)
T1 construct: gene yfeX; homodimer; ferric heme; distal D143, R232, L246, F248, proximal H215
T1 sequence (A0A0W8ATM9 1-299): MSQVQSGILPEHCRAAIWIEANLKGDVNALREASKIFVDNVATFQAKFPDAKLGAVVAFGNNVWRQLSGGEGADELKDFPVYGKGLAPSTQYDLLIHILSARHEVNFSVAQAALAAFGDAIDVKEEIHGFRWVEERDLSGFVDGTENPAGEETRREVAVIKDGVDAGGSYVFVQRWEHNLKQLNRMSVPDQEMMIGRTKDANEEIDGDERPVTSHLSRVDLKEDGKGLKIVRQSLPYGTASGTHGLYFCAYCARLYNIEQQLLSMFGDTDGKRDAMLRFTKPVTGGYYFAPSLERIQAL
Test: X-band CW EPR of frozen solution
Format: binding
Conditions: glycine-KOH buffer 50 mM, pH 10.0, 10 K, no glycerol; heme iron distal ligand; seen only at low temperature, not at room temperature

NCC(=O)O [glycine]
X-band CW EPR of frozen solution: glycine binding is also observed for WT and R232A KpDyP at low temperature
